This test deals with B-CLL cells. Kind of test: MTT viability of freshly isolated B-CLL cells. It counts as cell-based, human. The conditions noted are these: FIG. 3, 6 B-CLL patients. As to the method:
FIG. 3: The effect of the molecules M1, M2, M4, M5 and M6 on the viability of B-CLL cells was determined. Tumour cells freshly isolated from B-CLL patients were suspended at 2×10^6/ml in complete RPMI-1640 medium and incubated for 48 hours in the presence or absence of either 1 μg/ml (black bars) or 10 μg/ml (gray bars) of the various molecules. MTT was incorporated into the cells during the last 5 hours of incubation and the viability was measured by recording the formation of the formazan precipitate as described in the Examples section. The results are expressed as the percentage of the viability of the treated cells in comparison with control cells incubated with medium alone taken as 100% and represent the mean±SE of 6 B-CLL patients.
Blood samples from B-CLL patients were obtained from the Haematology Department of Hôtel-Dieu hospital (Paris, France) after written informed consent, in accordance with the rules and tenets of the revised Helsinki protocol. Diagnosis was established according to standard clinical and international CLL workshop criteria, including lymphocyte morphology and co-expression of CD5, CD20 and CD23 antigens. A total of 12 patients (6 men and 6 women) with an age ranging 50-84 years (mean±SD: 68±8.8 years) were selected and the time since diagnosis varied between 0 (newly diagnosed patients) and 10 years. The patients were randomly chosen for each type of experiment inasmuch as CD38 and ZAP-70 expression, cytogenetic analysis and mutational VH status were only available for a fraction of them, thus hampering a risk-group analysis. The leukemia B-cells were isolated with purity greater than 96%, as previously described (Zhao et al, Blood 1998; 92: 1031-1043). All the experiments were performed with freshly purified B-CLL leukemia cells.
M1, M2, M4, M5 and M6 were thus tested for their possible action on the viability of these leukemia cells by the MTT assay that relies on the integrity of the mitochondrial succinyl dehydrogenase.
Leukemia cells from B-CLL patients were adjusted at 2×10^6/ml and 200 μl aliquots were distributed in triplicate samples in the wells of a 96-well microtitration plate and cultured in the absence or presence of the various reagents. After 18 hours of incubation at 37° C. in a humidified atmosphere containing 5% CO2, 20 μl of a 5 mg/ml solution of MTT (Sigma, St Louis, Mo., USA) were added to the wells for an additional 6 hours incubation. The microplates were centrifuged at 400×g for 20 min, the supernatants carefully discarded and 200 μl of DMSO were added to the wells to dissolve the precipitates of formazan. The optical density was measured with the use of a microplate reader (Victor-2, Wallac, Perkin Elmer, Norwalk, Mont., USA) at the wavelength of 540 nm.

Turning to `COc1c(O)cc2oc3cc(O)c(CC=C(C)C)c(O)c3c(=O)c2c1CC=C(C)C` [M2, α-mangostin], the “viability of B-CLL cells (MTT)” value by setting is: (1 μg/ml) “no significant effect”; (10 μg/ml) “marked reduction in the viability”.

For the origin of these results see patent US20110263694A1, “Use of Xanthone Derivatives as a Medicament for Cancer” (MUSEUM NATIONAL D'HISTOIRE NATURELLE, priority 2008, published 2011).
